Measured values from patent publication US20250243180A1, “TARGETED PROTEIN DEGRADATION” (Monte Rosa Therapeutics AG, priority 2023, published 2025).
Where two headings read alike, the source gives them in different places.

Assays:
CRBN-DDB1 = CRBN-DDB1 (Homo sapiens (Human), UniProt Q96SW2); assay: Compound binding to CRBN by HTRF assay
Protocol: Compound activity was monitored in a Homogenous Time-Resolved Fluorescence (HTRF) assay using 1-[5-({2-[2-(2-{[2-(2,6-dioxopiperidin-3-yl)-1,3-dioxo-2,3-dihydro-1H-isoindol-4-yl]oxy}acetamido)ethoxy]ethyl}carbamoyl)pentyl]-3,3-dimethyl-2-[(1E,3E)-5-[(2E)-1,3,3-trimethyl-5-sulfo-2,3-dihydro-1H-indol-2-ylidene]penta-1,3-dien-1-yl]-3H-indol-1-ium-5-sulfonate as a fluorescent probe. Biochemical assays were conducted in Greiner white 384 well HiBase plates (Cat. No 784075-25) in 20 μL total volume. A one pot detection solution of CRBN-DDB1 (2.5 nM), Anti-His Terbium Cryptate Gold (1×, PerkinElmer Cat. #: 61HI2TLB), and Cy5-Thalidomide (100 nM, Tenova Cat.: T52461) was prepared in 20 mM HEPES, 20 mM NaCl, 0.2 mM TCEP, 0.2 mM EDTA, and 0.005% Tween20 was dispensed to each assay plate. Compounds were stored in dry, ambient temperatures at 10 mM. An 11-point, 1:3 dilution series was prepared from 10 mM stock concentrations in Echo-compatible LDV plates. 10 nL of each compound dilution series was dispensed into assays wells using an Echo 650 (Labcyte Inc. USA). 20 nL of 10 mM Lenalidomide was transferred into the active-control wells for the assay and 20 nL of DMSO was transferred into the neutral-control wells. The assay was then allowed to incubate for 30 min at ambient temperature after transferring compound. Plate measurements were taken on a Pherastar FSX (BMG Labtech, Germany) using the HTRF Red filter (Ex. 337 nm, em1: 620 nm, em2: 665 nm) (Flashes: 50, Integration time: 60-400 us, Z-height: 10 mm, Ratio-multiplier: 10,000). The HTRF signal was then subsequently normalized to the neutral and active controls. Analysis and EC50 values were derived using KNIME analytics (KNIME Zurich) transformation and fitting within Collaborative Drug Discovery (Collaborative Drug Discovery USA). Ki was derived from the geometric mean of the EC50 values using the Cheng-Prustoff transformation.

NEK7 = NEK7 (Homo sapiens (Human), UniProt Q8TDX7+Q96SW2); assay: NEK7 NanoBiT degradation assay in Cal51 NEK7 NanoBiT cell line; format: cell-based; settings: Cal51 NEK7 NanoBiT cells, 24 hours; for Dmax: CAL-51
Sequence of NEK7 (Q8TDX7 whole entry): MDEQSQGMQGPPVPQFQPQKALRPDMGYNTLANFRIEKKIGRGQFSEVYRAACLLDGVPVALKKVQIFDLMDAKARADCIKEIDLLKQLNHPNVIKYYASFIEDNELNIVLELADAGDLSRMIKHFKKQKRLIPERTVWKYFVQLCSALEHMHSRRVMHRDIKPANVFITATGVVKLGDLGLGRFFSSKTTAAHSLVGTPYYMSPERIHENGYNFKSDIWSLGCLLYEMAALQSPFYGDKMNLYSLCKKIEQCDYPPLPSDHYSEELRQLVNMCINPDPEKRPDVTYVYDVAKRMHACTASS
Sequence of NEK7 (Q96SW2 whole entry): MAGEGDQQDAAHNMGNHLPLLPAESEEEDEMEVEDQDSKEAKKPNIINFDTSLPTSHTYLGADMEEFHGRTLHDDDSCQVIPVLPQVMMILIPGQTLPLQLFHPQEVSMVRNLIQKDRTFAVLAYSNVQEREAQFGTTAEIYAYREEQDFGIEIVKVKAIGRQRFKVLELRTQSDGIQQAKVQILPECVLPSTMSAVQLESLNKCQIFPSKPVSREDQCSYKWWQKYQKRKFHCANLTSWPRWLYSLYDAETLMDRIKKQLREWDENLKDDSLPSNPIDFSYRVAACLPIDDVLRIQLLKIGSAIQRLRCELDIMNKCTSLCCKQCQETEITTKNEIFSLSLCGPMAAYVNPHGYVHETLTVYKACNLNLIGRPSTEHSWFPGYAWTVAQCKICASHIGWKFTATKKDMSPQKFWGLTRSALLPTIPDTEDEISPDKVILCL
Sequence of NEK7 (Q16531 2-1140 partner): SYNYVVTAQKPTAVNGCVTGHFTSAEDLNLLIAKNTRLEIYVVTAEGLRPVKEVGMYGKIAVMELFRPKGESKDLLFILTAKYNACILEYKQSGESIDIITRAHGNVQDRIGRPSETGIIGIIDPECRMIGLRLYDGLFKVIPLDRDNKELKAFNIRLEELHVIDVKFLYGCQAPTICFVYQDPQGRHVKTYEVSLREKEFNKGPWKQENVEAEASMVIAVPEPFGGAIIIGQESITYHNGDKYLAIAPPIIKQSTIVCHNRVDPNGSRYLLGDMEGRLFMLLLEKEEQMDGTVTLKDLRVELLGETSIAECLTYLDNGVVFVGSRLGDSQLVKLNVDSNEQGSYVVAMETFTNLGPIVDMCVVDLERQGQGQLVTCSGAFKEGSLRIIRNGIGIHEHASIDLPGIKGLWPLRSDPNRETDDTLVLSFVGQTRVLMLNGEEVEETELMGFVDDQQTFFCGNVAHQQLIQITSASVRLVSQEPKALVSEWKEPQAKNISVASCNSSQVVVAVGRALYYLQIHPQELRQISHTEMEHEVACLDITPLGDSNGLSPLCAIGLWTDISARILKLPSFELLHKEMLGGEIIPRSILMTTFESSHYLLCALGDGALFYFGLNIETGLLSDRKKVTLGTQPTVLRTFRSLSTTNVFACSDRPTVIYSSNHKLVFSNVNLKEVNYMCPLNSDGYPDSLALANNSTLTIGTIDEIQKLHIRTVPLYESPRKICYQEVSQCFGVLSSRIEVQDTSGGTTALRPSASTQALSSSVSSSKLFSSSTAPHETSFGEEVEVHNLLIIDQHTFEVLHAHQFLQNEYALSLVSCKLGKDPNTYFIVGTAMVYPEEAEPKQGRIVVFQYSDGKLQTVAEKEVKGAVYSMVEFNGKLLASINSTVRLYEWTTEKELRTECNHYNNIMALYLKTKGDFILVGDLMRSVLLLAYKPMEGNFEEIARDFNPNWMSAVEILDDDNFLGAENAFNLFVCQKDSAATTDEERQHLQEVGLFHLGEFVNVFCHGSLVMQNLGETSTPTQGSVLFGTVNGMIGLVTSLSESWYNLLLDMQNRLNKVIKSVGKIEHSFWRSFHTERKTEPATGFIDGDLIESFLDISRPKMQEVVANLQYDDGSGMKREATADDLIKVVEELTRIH
Protocol: Cal51 NEK7 NanoBiT cell line was generated via CRISPR Knock-In of the HiBiT tag in NEK7 gene and stable infection with a lentivirus carrying LgBiT protein. The cell line was generated in house. For the experiment, cells were plated in 384-well white flat bottom plates (Corning, 3570BC) at 2500 cells per well using Multiflo (BioTek/Agilent) and in 25 μl volume in DMEM experimental medium: DMEM (DMEM, high glucose, HEPES, no phenol red (ThermoFisher Scientific, 21063029) supplemented with 10% FBS (Corning, 35-075-CV), 1% Penicillin/Streptomycin ((ThermoFisher Scientific, 15140-122), and 1% Endurazine (Nano-Glo Endurazine Live Cell Substrate (Promega, N2571)). Cells were incubated for 16 hours at 37° C., 5% CO2 before compound addition. For dose response determination, 2.5 nL of a compound at different concentrations (stock compound concentration range: 10 mM to 0.5 μM, final concentration range inside cell plate: 1 μM to 0.05 nM) were dispensed into the plate using an Echo® 650 liquid handling device (Backman Coulter/Labcyte). Cells were incubated at 37° C., 5% CO2 for 24 hours and then signal was read on a Pherastar FSX using “LUM plus” optic module with 4095 gain and measurement interval time 0.2 seconds.
Analysis was performed in Genedata Screener (Genedata, Basel, CH). Luminescence response (R) was calculated by the formula: response=100*(S−N)/(P−N) where S is the signal of the well, N and P the mean negative and positive control values respectively of the same plate. The luminescence response was then fitted in Genedata using a 4-parameter antagonist logistic fit (hill slope unconstrained, EC50>0, top/bottom unconstrained).

[1] = NEK7 degradation, read-out: NanoBiT Dmax
[2] = NEK7 degradation, read-out: NanoBiT DC50

Sequence of CRBN-DDB1 (Q96SW2 whole entry): as the sequence (Q96SW2 whole entry) above
Sequence of CRBN-DDB1 (Q16531 whole entry partner): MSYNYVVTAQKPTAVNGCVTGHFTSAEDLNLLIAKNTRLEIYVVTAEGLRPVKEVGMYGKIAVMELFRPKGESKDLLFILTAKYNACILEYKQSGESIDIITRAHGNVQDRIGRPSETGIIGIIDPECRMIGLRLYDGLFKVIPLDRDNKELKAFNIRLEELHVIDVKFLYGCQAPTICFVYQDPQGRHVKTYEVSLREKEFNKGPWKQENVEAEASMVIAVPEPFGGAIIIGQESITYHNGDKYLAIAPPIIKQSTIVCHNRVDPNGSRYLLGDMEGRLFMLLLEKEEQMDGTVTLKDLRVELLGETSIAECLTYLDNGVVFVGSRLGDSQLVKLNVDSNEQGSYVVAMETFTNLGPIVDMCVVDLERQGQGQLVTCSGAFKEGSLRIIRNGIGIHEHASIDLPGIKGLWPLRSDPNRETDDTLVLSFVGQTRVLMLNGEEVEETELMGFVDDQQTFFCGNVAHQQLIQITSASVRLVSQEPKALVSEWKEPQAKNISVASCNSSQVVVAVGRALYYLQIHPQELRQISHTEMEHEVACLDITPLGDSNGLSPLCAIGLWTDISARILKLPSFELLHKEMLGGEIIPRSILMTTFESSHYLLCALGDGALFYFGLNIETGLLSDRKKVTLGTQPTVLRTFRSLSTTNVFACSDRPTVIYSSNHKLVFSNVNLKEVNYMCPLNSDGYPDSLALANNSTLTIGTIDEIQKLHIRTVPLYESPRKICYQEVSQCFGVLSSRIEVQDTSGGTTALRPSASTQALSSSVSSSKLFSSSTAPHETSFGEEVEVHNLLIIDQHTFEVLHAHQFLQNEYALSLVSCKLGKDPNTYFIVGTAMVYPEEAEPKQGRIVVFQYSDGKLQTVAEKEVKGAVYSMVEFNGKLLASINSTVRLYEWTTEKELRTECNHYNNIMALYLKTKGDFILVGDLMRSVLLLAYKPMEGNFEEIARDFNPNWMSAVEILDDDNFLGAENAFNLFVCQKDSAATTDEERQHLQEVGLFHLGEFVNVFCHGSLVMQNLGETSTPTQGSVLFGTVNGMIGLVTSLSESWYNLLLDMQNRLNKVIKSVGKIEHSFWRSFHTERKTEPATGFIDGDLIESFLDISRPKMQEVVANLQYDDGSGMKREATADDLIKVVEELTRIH

| SMILES | EC50 (CRBN-DDB1) [µM] | EC50 (CRBN-DDB1; HTRF class, Cereblon binding) [µM] | Dmax (NEK7; read-out: NEK7 NanoBiT Dmax) [%] | Dmax (NEK7; [1]) [%] | DC50 (NEK7; read-out: NEK7 NanoBiT DC50) [µM] | DC50 (NEK7; [2]) [µM] |
| --- | --- | --- | --- | --- | --- | --- |
| CC(C)(C(=O)NCc1cc(Cl)c(C2CCC(=O)NC2=O)c(Cl)c1)c1cccc(F)c1 (stereo not drawn) [Compound 27] | 0.05 | ≤ 0.1 | 96 | > 75 | 0.001 | ≤ 0.1 |
| CC(C)(C(=O)NCc1ccc(C2CCC(=O)NC2=O)c(Cl)c1)c1ccc(C#N)cc1 (stereo not drawn) [Compound 28] | 0.47 | 0.1 to 1 | 91 | > 75 | 0.017 | ≤ 0.1 |
| CC(C)(C(=O)NCc1cc(Cl)c(C2CCC(=O)NC2=O)c(Cl)c1)c1ccc(C#N)cc1 (stereo not drawn) [Compound 29] | 0.08 | ≤ 0.1 | 97 | > 75 | 0.0004 | ≤ 0.1 |
| CC(C)(C(=O)NCc1ccc(C2CCC(=O)NC2=O)c(Cl)c1)c1ccc(F)cc1 (stereo not drawn) [Compound 30] | 0.35 | 0.1 to 1 | 92 | > 75 | 0.012 | ≤ 0.1 |
| CC(C)(C(=O)NCc1cc(F)c(C2CCC(=O)NC2=O)c(Cl)c1)c1ccccc1 (stereo not drawn) [Compound 31] | 0.13 | 0.1 to 1 | 93 | > 75 | 0.006 | ≤ 0.1 |
| CC(C)(C(=O)NCc1cc(Cl)c(C2CCC(=O)NC2=O)c(Cl)c1)c1ccc2c(c1)S(=O)(=O)NC2 (stereo not drawn) [Compound 32, N-(3,5-dichloro-4-(2,6-dioxopiperidin-3-yl)benzyl)-2-(1,1-dioxido-2,3-dihydrobenzo[d]isothiazol-6-yl)-2-methylpropanamide] | 0.11 | 0.1 to 1 | 95 | > 75 | 0.004 | ≤ 0.1 |
| CC(C)(C(=O)NCc1cc(Cl)c(C2CCC(=O)NC2=O)c(Cl)c1)c1ccc2ncncc2c1 (stereo not drawn) [Compound 33] | 0.12 | 0.1 to 1 | 96 | > 75 | 0.002 | ≤ 0.1 |
| CC(C)(C(=O)NCc1cc(Cl)c(C2CCC(=O)NC2=O)c(Cl)c1)c1ccc2cnncc2c1 (stereo not drawn) [Compound 35, N-(3,5-dichloro-4-(2,6-dioxopiperidin-3-yl)benzyl)-2-methyl-2-(phthalazin-6-yl)propanamide] | 0.13 | 0.1 to 1 | 77 | > 75 | 0.019 | ≤ 0.1 |
| CC(C)(C(=O)NCc1cc(Cl)c(C2CCC(=O)NC2=O)c(Cl)c1)c1cc(F)c(S(N)(=O)=O)c(F)c1 (stereo not drawn) [Compound 36, N-(3,5-dichloro-4-(2,6-dioxopiperidin-3-yl)benzyl)-2-(3,5-difluoro-4-sulfamoylphenyl)-2-methylpropanamide] | 0.08 | ≤ 0.1 | 95 | > 75 | 0.005 | ≤ 0.1 |
| CC1(C(=O)NCc2cc(Cl)c(C3CCC(=O)NC3=O)c(Cl)c2)COc2ccccc2C1 (stereo not drawn) [Compound 38, N-(3,5-dichloro-4-(2,6-dioxopiperidin-3-yl)benzyl)-3-methylchromane-3-carboxamide] | 0.04 | ≤ 0.1 | 90 | > 75 | 0.006 | ≤ 0.1 |
| CC(C)(C(=O)NCc1cc(Cl)c(C2CCC(=O)NC2=O)c(Cl)c1)c1ccc(S(N)(=O)=O)c(F)c1 (stereo not drawn) [Compound 39, N-(3,5-dichloro-4-(2,6-dioxopiperidin-3-yl)benzyl)-2-(3-fluoro-4-sulfamoylphenyl)-2-methylpropanamide] | 0.05 | ≤ 0.1 | 97 | > 75 | 0.002 | ≤ 0.1 |
| CC(C)(C(=O)NCc1cc(Cl)c(C2CCC(=O)NC2=O)c(Cl)c1)c1ccc2c(c1)CNS2(=O)=O (stereo not drawn) [Compound 40] | 0.1 | ≤ 0.1 | 93 | > 75 | 0.008 | ≤ 0.1 |
| CC(C)(C(=O)NCc1cc(Cl)c(C2CCC(=O)NC2=O)c(Cl)c1)c1ccc2nnccc2c1 (stereo not drawn) [Compound 41] | 0.06 | ≤ 0.1 | 98 | > 75 | 0.0004 | ≤ 0.1 |
| Cc1cc(C(C)(C)C(=O)NCc2cc(Cl)c(C3CCC(=O)NC3=O)c(Cl)c2)cc(=O)[nH]1 (stereo not drawn) [Compound 42, N-(3,5-dichloro-4-(2,6-dioxopiperidin-3-yl)benzyl)-2-methyl-2-(6-methyl-2-oxo-1,2-dihydropyridin-4-yl)propanamide] | 0.18 | 0.1 to 1 | 93 | > 75 | 0.02 | ≤ 0.1 |
| CC(C)(C(=O)NCc1cc(Cl)c(C2CCC(=O)NC2=O)c(Cl)c1)c1ccc(S(N)(=O)=O)cc1F (stereo not drawn) [Compound 43] | 0.04 | ≤ 0.1 | 97 | > 75 | 0.001 | ≤ 0.1 |
| CC(C)(C(=O)NCc1cc(Cl)c(C2CCC(=O)NC2=O)c(Cl)c1)c1ccn2cnnc2c1 (stereo not drawn) [Compound 44] | 0.23 | 0.1 to 1 | 88 | > 75 | 0.038 | ≤ 0.1 |
| CCn1ccc(C(C)(C)C(=O)NCc2cc(Cl)c(C3CCC(=O)NC3=O)c(Cl)c2)cc1=O (stereo not drawn) [Compound 45] | 0.53 | 0.1 to 1 | 91 | > 75 | 0.013 | ≤ 0.1 |
| COc1nccc(C(C)(C)C(=O)NCc2cc(Cl)c(C3CCC(=O)NC3=O)c(Cl)c2)n1 (stereo not drawn) [Compound 46] | 0.05 | ≤ 0.1 | 71 | 50 to 75 | 0.061 | ≤ 0.1 |
| CC1(C(=O)NCc2cc(Cl)c(C3CCC(=O)NC3=O)c(Cl)c2)COc2ccccc2O1 (stereo not drawn) [Compound 47] | 0.03 | ≤ 0.1 | 85 | > 75 | 0.004 | ≤ 0.1 |
| CN1Cc2ccccc2CC1C(=O)NCc1cc(Cl)c(C2CCC(=O)NC2=O)c(Cl)c1 (stereo not drawn) [Compound 48] | 0.13 | 0.1 to 1 | 66 | 50 to 75 | 0.054 | ≤ 0.1 |
| CC(C)(C(=O)NCc1cc(Cl)c(C2CCC(=O)NC2=O)c(Cl)c1)c1ccc2nccnc2c1 (stereo not drawn) [Compound 49] | 0.07 | ≤ 0.1 | 99 | > 75 | 0.0001 | ≤ 0.1 |
| CC(C)(C(=O)NCc1cc(Cl)c(C2CCC(=O)NC2=O)c(Cl)c1)c1ccc(NS(C)(=O)=O)cc1 (stereo not drawn) [Compound 50] | 0.15 | 0.1 to 1 | 88 | > 75 | 0.018 | ≤ 0.1 |
| CC(C)(C(=O)NCc1cc(Cl)c(C2CCC(=O)NC2=O)c(Cl)c1)c1ccc(C(N)=O)cc1F (stereo not drawn) [Compound 51] | 0.07 | ≤ 0.1 | 96 | > 75 | 0.001 | ≤ 0.1 |
| CC(C)(C(=O)NCc1cc(Cl)c(C2CCC(=O)NC2=O)c(Cl)c1)c1cnc2ncsc2c1 (stereo not drawn) [Compound 52] | 0.09 | ≤ 0.1 | 67 | 50 to 75 | 0.059 | ≤ 0.1 |
